The values that follow come from ChEMBL document CHEMBL5620372, “Pharmacological inhibition of ferroptosis as a therapeutic target for sepsis-associated organ damage” (Eur J Med Chem, 2023).

The nature of data set [1]: Oral bioavailability in human. Type of data set: ADME, organism-based. The following applies: in vivo.
A short description of data set [2]: Half life in human plasma. Type of data set: ADME, cell-free.
The nature of data set [3]: Drug recovery in rat feces at 10 mg/kg, IG measured after 36 hrs. Format: ADME, organism-based. The conditions noted are these: faeces, po, read-out: Drug recovery.
A short description of data set [4]: Drug recovery in rat urine at 10 mg/kg, IG measured after 36 hrs. Format: ADME, organism-based. The following applies: po, read-out: Drug recovery.
A short description of data set [5]: Cmax in human plasma. Type of data set: ADME, cell-free.
The nature of data set [6]: Oral bioavailability in human at 2 mg/kg. Type of data set: ADME, organism-based. The conditions noted are these: in vivo.

Molecules are shown by their SMILES.

As usually defined, the bioavailability is the share of a dose that reaches the circulation, judged against a reference dose that is usually intravenous. Higher therefore signals much systemic uptake. As usually defined, the half-life is how long it takes for the measured level to halve. A low value points to fast loss. `CC(=O)Nc1ccc(O)cc1` [ACETAMINOPHEN] registered a bioavailability in data set [1] of 86%. For the same compound, the half-life in data set [2] amounted to 12 min.
For the compound `Oc1ccc(/C=C/c2cc(O)cc(O)c2)cc1` [RESVERATROL], the dose excreted at 36 h was 0.07% in data set [3] and 0.15% in data set [4].
As a reminder, the Cmax is the peak of the concentration-time curve. Compound `O=c1c(-c2ccc(O)cc2)coc2c([C@@H]3O[C@H](CO)[C@@H](O)[C@H](O)[C@H]3O)c(O)ccc12` [PUERARIN] came in with a Cmax in data set [5] of 140 ng/mL. Also, the bioavailability in data set [6] worked out at 7%.
